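How tested: cells in 96-well plates exposed to compound for 48 hours at five concentrations. GI50: concentration for 50% inhibition of growth. At the TGI there is no net growth.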
Experiments:
Test in all cases: NCI-60 cell line screen, 48 h
HL-60(TB) leukemia = test system: HL-60(TB) leukemia
HOP-62 NSCLC = test system: HOP-62 NSCLC
HOP-92 NSCLC = test system: HOP-92 NSCLC
OVCAR-8 ovarian = test system: OVCAR-8 ovarian
SF-295 CNS = test system: SF-295 CNS
SF-539 CNS = test system: SF-539 CNS
SN12C renal = test system: SN12C renal
SNB-75 CNS = test system: SNB-75 CNS
MDA-MB-435 = test system: MDA-MB-435
SK-MEL-2 melanoma = test system: SK-MEL-2 melanoma

Structure (SMILES)	TGI (HL-60(TB) leukemia) [µM]	TGI (HOP-62 NSCLC) [µM]	TGI (HOP-92 NSCLC) [µM]	TGI (OVCAR-8 ovarian) [µM]	TGI (SF-295 CNS) [µM]	TGI (SF-539 CNS) [µM]	TGI (SN12C renal) [µM]	TGI (SNB-75 CNS) [µM]	GI50 (HL-60(TB) leukemia) [µM]	GI50 (HOP-62 NSCLC) [µM]	GI50 (HOP-92 NSCLC) [µM]	GI50 (MDA-MB-435) [µM]	TGI (MDA-MB-435) [µM]	GI50 (OVCAR-8 ovarian) [µM]	GI50 (SF-295 CNS) [µM]	GI50 (SF-539 CNS) [µM]	GI50 (SN12C renal) [µM]	GI50 (SNB-75 CNS) [µM]	TGI (SK-MEL-2 melanoma) [µM]	GI50 (SK-MEL-2 melanoma) [µM]
CC1(C)OC(=O)C(=C2CC(c3ccccc3)c3ccccc32)C(=O)O1 (stereo not drawn)	> 100	> 100	> 100	> 100	> 100	> 100	> 100	> 100	–	–	–	–	–	–	–	–	–	–	–	–
CCCCCCCCCC(CCCC(O)CC(=O)O)OC1OC(COC2OC(C)C(O)C(O)C2O)C(O)C(O)C1OC1OC(CO)C(O)C(O)C1OC1OC(C)C(O)C(O)C1O (stereo not drawn)	> 40	> 40	> 40	> 40	> 40	> 40	> 40	> 40	> 40	> 40	> 40	> 40	> 40	> 40	> 40	> 40	> 40	> 40	–	–
CN(C)/C(N)=N/C(N)=S	> 100	> 100	> 100	> 100	> 100	> 100	> 100	> 100	–	–	–	–	–	–	–	–	–	–	–	–
COC(=O)C1C2CCCN2OC1(C)CO (stereo not drawn)	> 100	> 100	–	> 100	> 100	> 100	> 100	> 100	–	–	–	–	> 100	–	–	–	–	–	> 100	–
Cc1ccc(C2=C(c3ccccc3)C(O)(c3ccc(C)cc3)C(c3ccccc3)=C2c2ccc(C)cc2)cc1	> 100	> 100	> 100	> 100	> 100	> 100	> 100	–	–	–	–	–	–	–	–	–	–	–	> 100	–
COC(=O)NN1C(C)=C(C(=O)OC)C2(CCOC2=O)C1(C)O (stereo not drawn)	> 100	> 100	> 100	> 100	> 100	> 100	> 100	–	–	–	–	–	–	–	–	–	–	–	> 100	–
COc1cc(-c2cc(CCC(=O)Nc3ccccc3[N+](=O)[O-])n(-c3ccc([N+](=O)[O-])cc3[N+](=O)[O-])n2)ccc1O	> 100	> 100	> 100	> 100	> 10	> 100	> 100	> 100	> 100	> 100	> 100	–	–	> 100	–	> 100	> 100	> 10	> 100	> 100
COc1ccc(/C(C)=N/NC(N)=S)c(OC)c1	> 100	> 100	> 100	> 100	> 100	> 100	> 100	> 100	–	–	–	–	–	–	–	–	–	–	> 100	–
COc1ccc(C(=O)O)c(Cc2ccc3ccccc3c2)c1	> 100	> 100	> 100	> 100	> 100	> 100	> 100	> 100	–	–	–	–	–	–	–	–	–	–	> 100	–
CC1=C(c2cc(C(=O)Nc3nccs3)nc(NC#N)n2)Sc2ccccc2N1	> 100	> 100	> 100	> 100	> 100	> 100	> 100	> 100	–	–	–	–	–	–	–	–	–	–	> 100	–

Reference: PubChem BioAssay (NCI)
